Tests used:
flow-sorted bull sperm = assay: Post-thaw motility of bulk-sorted frozen sperm: Hoechst 33342 dye concentration and laser intensity (Example 3); format: cell-based, bovine; details: for post-thaw motility: main effect mean
Protocol: Straws were thawed in a 37° C. water bath for 30 sec. Blind estimates of progressive motility were made after incubating samples at 37° C. for 0, 1 and 2 h post-thawing. Each of two observers estimated progressive sperm motility from each of two straws of semen. These four blind estimates for each experimental unit represent subsampling.
Sperm of 6 bulls were collected and prepared as described in Example 1A.
a) Experimental Design. • One ejaculate (2 bulls) and 2 ejaculates on different days (4 bulls) were used in a 2 by 2 design plus control.
b) Staining and Sorting. • Staining, preparation for sorting and sorting sperm were achieved as described in Example 2 except that the Hoechst 33342 dye was added to sperm suspensions at a final concentration of 149 μM or 224 μM; and sperm were bulked-sorted with the laser operating at 100 mW or 150 mW of incident power. Bulk-sorted sperm were collected into 50-ml plastic tubes as described in Example 2. Four tubes containing approximately 15×10^6 total sperm/tube were collected over 1 h for each bull. The sorted sperm were incubated for 1 h at 22° C. to simulate a longer sorting time.
c) Preparation for Freezing. • Following incubation, the sperm were cooled as in Example 2. The sperm were then concentrated by centrifugation at 5° C. at 850×g for 20 minutes. After removing the supernatant, 150 μl of Tris-A fraction extender was added to each 150-μl sperm pellet at 5° C. All of the sperm pellets were suspended by gentle repeated aspiration and the sperm of individual bulls were pooled. Tris B-fraction extender was added stepwise as described in Example 2. A non-stained, non-sorted control for each bull was prepared at 20×10^6 sperm/ml in Tris extender containing 6% glycerol and cooled to 5° C. while the bulk-sorted sperm were being prepared.
d) Equilibration and Freezing. • The control and sorted sperm were packaged into 0.25-ml polyvinylchloride straws as described in Example 2, equilibrated at 5° C. for 3 h and then frozen conventionally.
Straws were thawed and evaluated as described in Example 2.

bull sperm = assay: Post-thaw progressive motility of sperm frozen in WET extender with SDS (Example 5A); format: cell-based, bovine; details: mean of 6 bulls
Protocol: Sperm of 6 bulls were collected and prepared as described in Example 1A. Sperm from each of 6 bulls were extended to 20×10^6/ml in 20% whole egg Tris (“WET”) extender containing 0, 0.03, 0.06, 0.09, or 0.12 percent SDS, packaged into straws and frozen. WET extender was prepared using 3.028 g of Tris[hydroxymethyl]aminomethane, 1.78 g of citric acid monohydrate, and 1.25 g of fructose per 100 ml of double distilled water, to which 20% whole egg (vol/vol) was added. The WET extender was prepared at a pH of about 7.0 and contained a final glycerol concentration of about 6% (vol/vol). The WET extender also contained 1000 IU of penicillin “G” sodium and 100 μg of streptomycin sulfate/ml.

SMILES | effect of dye concentration on post-thaw sperm motility (flow-sorted bull sperm; 149 μM vs 224 μM) | post-thaw motility (flow-sorted bull sperm; Hoechst 33342 149 μM, 0 h incubation at 37° C.) [%] | post-thaw motility (flow-sorted bull sperm; Hoechst 33342 149 μM, 1 h incubation at 37° C.) [%] | post-thaw motility (flow-sorted bull sperm; Hoechst 33342 149 μM, 2 h incubation at 37° C.) [%] | post-thaw motility (flow-sorted bull sperm; Hoechst 33342 224 μM, 0 h incubation at 37° C.) [%] | post-thaw motility (flow-sorted bull sperm; Hoechst 33342 224 μM, 1 h incubation at 37° C.) [%] | post-thaw motility (flow-sorted bull sperm; Hoechst 33342 224 μM, 2 h incubation at 37° C.) [%] | progressive motile sperm approximately 10 minutes post-thaw (bull sperm; WET extender containing 0.03 percent SDS) [%] | progressive motile sperm approximately 10 minutes post-thaw (bull sperm; WET extender containing 0.06 percent SDS) [%] | progressive motile sperm approximately 10 minutes post-thaw (bull sperm; WET extender containing 0.09 percent SDS) [%] | progressive motile sperm approximately 10 minutes post-thaw (bull sperm; WET extender containing 0.12 percent SDS) [%]
CCOc1ccc(-c2nc3ccc(-c4nc5ccc(N6CCN(C)CC6)cc5[nH]4)cc3[nH]2)cc1 [Hoechst 33342, bis-Benzimide H-33342] | no effect | 41 | 39 | 30 | 42 | 39 | 30 |  |  |  | 
CCCCCCCCCCCCOS(=O)(=O)[O-].[Na+] [SDS, sodium dodecyl sulfate] |  |  |  |  |  |  |  | 51 | 50 | 51 | 48
